Laboratory results taken from ChEMBL document CHEMBL5113482, “Discovery of fused benzimidazole-imidazole autophagic flux inhibitors for treatment of triple-negative breast cancer” (Eur J Med Chem, 2022).
Active and inactive are the calls of the source. The calls are words filed in the database; no cut-off is given here.

Columns and labels:
MDA-MB-231 [1] = assay: Antiproliferative activity against human MDA-MB-231 cells assessed as cell growth inhibition measured after 48 hrs by MTT assay; assay type: functional, cell-based; conditions: MDA-MB-231, 48 h
PANC-1 = assay: Antiproliferative activity against human PANC cells assessed as cell growth inhibition measured after 48 hrs by MTT assay; assay type: functional, cell-based; conditions: PANC-1, 48 h
MDA-MB-231 [2] = assay: Inhibition of autophagy in human MDA-MB-231 cells assessed as increase in LC3B-II expression measured after 48 hrs by immunofluorescence analysis; assay type: functional, cell-based; conditions: dose 5-20 µM
MDA-MB-231 [3] = assay: Induction of DNA damage in human MDA-MB-231 cells assessed as increase in gamma-H2AX accumulation measured after 48 hrs by immunofluorescence analysis; assay type: functional, cell-based
[4] = target: Serine-protein kinase ATM (Homo sapiens) (UniProt Q13315); assay: Activation of ATM phosphorylation in human MDA-MB-468 cells at 5 to 20 uM measured after 6 to 48 hrs by Western blot analysis; assay type: cell-based; conditions: filed as activator, dose 5-20 µM, time 6-48 hrs
Nibrin (Homo sapiens) = target: T1, Nibrin (Homo sapiens) (UniProt O60934); assay: Activation of NBS1 phosphorylation in human MDA-MB-468 cells at 5 to 20 uM measured after 6 to 48 hrs by Western blot analysis; assay type: cell-based; conditions: filed as activator, dose 5-20 µM, time 6-48 hrs
T1 sequence (whole entry): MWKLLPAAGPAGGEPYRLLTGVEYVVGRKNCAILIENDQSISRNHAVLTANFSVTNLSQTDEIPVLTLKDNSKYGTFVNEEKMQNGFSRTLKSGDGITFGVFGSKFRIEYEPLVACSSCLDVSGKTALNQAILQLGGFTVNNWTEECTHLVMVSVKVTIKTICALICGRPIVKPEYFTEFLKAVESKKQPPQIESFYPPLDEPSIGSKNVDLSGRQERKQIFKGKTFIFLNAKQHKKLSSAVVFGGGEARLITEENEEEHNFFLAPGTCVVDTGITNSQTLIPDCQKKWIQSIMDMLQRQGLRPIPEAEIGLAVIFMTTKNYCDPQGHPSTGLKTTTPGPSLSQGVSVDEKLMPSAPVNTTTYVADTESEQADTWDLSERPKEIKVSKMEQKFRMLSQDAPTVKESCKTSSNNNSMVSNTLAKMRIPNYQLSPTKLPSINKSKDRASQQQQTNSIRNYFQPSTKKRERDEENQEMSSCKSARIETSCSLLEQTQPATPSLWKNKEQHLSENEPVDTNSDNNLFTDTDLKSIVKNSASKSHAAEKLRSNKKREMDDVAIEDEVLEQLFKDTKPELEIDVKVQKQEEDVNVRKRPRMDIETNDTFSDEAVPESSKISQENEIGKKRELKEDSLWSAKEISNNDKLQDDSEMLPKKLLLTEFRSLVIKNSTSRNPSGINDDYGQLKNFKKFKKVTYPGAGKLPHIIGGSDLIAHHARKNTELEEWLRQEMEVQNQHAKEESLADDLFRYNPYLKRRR

[5] = target: T2, Structural maintenance of chromosomes protein 1A (Homo sapiens) (UniProt Q14683); assay: Activation of SMC1 phosphorylation in human MDA-MB-468 cells at 5 to 20 uM measured after 6 to 48 hrs by Western blot analysis; assay type: cell-based; conditions: filed as activator, dose 5-20 µM, time 6-48 hrs
T2 sequence (whole entry): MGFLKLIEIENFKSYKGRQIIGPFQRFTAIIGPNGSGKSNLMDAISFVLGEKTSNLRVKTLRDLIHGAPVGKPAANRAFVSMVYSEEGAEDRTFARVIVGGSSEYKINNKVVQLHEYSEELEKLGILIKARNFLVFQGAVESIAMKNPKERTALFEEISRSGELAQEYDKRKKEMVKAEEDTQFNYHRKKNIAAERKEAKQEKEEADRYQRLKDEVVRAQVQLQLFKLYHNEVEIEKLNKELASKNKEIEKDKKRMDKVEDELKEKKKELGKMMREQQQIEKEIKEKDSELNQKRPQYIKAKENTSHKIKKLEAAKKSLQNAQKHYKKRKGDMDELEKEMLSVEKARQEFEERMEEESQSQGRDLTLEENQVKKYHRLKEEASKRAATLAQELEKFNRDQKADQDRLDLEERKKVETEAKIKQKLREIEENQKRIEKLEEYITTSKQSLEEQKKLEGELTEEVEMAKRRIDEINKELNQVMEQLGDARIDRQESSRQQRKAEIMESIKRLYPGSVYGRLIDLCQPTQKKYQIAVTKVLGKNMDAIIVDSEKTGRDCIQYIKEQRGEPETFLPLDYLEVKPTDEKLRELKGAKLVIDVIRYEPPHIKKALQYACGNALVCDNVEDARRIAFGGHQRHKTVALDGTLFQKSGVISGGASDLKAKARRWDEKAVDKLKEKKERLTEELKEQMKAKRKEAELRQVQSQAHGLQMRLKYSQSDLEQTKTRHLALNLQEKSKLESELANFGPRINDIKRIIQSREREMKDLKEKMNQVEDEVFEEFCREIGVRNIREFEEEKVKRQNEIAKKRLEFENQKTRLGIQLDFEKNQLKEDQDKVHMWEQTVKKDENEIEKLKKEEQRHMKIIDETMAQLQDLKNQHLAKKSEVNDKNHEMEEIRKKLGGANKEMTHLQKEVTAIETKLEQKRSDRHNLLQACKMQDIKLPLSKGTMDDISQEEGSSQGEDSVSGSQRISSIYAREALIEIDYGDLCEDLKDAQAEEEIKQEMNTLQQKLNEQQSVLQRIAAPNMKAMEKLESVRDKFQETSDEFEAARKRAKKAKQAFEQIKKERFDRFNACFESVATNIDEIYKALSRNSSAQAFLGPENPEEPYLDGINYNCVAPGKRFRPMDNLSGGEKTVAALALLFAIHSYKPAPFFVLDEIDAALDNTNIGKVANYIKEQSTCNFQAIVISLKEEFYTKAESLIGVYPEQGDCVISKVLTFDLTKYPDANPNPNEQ

MDA-MB-468 [6] = assay: Inhibition of autophagic flux in human MDA-MB-468 cells assessed as increase in nuclear p62 expression measured after 48 hrs by immunofluorescence analysis; assay type: functional, cell-based; conditions: dose 5-20 µM, DDE = dose-dependent effect
MDA-MB-468 [7] = assay: Cell cycle arrest in human MDA-MB-468 cells assessed as increase in CHK2 phosphorylation at Thr 68 residue measured after 48 hrs by Western blot analysis; assay type: functional, cell-based; conditions: dose 5-20 µM, DDE = dose-dependent effect
MDA-MB-468 [8] = assay: Induction of mitochondrial membrane potential loss in human MDA-MB-468 cells at 20 uM measured after 48 hrs by JC-1 staining based assay relative to control; assay type: functional
MDA-MB-468 [9] = assay: Induction of apoptosis in human MDA-MB-468 cells assessed as increase in Bim expression measured after 48 hrs by Western blot analysis; assay type: functional, cell-based; conditions: dose 5-20 µM, DDE = dose-dependent effect
MDA-MB-231 [10] = assay: Antitumor activity against human MDA-MB-231 cells xenografted in ip dosed NOD/SCID mouse assessed as upregulation of LC3B-II expression administered at 3 days interval for 24 days and measured on day 25 by Western blot analysis; assay type: functional, organism-based; conditions: dose 5-15 mg/kg, time 25.0 day, DDE = dose-dependent effect
MDA-MB-231 [11] = assay: Antitumor activity against human MDA-MB-231 cells xenografted in ip dosed NOD/SCID mouse assessed as upregulation of gamma-H2AX expression administered at 3 days interval for 24 days and measured on day 25 by Western blot analysis; assay type: functional, organism-based; conditions: dose 5-15 mg/kg, time 25.0 day, DDE = dose-dependent effect

Chain of Serine-protein kinase ATM (Homo sapiens) (Q13315 whole entry): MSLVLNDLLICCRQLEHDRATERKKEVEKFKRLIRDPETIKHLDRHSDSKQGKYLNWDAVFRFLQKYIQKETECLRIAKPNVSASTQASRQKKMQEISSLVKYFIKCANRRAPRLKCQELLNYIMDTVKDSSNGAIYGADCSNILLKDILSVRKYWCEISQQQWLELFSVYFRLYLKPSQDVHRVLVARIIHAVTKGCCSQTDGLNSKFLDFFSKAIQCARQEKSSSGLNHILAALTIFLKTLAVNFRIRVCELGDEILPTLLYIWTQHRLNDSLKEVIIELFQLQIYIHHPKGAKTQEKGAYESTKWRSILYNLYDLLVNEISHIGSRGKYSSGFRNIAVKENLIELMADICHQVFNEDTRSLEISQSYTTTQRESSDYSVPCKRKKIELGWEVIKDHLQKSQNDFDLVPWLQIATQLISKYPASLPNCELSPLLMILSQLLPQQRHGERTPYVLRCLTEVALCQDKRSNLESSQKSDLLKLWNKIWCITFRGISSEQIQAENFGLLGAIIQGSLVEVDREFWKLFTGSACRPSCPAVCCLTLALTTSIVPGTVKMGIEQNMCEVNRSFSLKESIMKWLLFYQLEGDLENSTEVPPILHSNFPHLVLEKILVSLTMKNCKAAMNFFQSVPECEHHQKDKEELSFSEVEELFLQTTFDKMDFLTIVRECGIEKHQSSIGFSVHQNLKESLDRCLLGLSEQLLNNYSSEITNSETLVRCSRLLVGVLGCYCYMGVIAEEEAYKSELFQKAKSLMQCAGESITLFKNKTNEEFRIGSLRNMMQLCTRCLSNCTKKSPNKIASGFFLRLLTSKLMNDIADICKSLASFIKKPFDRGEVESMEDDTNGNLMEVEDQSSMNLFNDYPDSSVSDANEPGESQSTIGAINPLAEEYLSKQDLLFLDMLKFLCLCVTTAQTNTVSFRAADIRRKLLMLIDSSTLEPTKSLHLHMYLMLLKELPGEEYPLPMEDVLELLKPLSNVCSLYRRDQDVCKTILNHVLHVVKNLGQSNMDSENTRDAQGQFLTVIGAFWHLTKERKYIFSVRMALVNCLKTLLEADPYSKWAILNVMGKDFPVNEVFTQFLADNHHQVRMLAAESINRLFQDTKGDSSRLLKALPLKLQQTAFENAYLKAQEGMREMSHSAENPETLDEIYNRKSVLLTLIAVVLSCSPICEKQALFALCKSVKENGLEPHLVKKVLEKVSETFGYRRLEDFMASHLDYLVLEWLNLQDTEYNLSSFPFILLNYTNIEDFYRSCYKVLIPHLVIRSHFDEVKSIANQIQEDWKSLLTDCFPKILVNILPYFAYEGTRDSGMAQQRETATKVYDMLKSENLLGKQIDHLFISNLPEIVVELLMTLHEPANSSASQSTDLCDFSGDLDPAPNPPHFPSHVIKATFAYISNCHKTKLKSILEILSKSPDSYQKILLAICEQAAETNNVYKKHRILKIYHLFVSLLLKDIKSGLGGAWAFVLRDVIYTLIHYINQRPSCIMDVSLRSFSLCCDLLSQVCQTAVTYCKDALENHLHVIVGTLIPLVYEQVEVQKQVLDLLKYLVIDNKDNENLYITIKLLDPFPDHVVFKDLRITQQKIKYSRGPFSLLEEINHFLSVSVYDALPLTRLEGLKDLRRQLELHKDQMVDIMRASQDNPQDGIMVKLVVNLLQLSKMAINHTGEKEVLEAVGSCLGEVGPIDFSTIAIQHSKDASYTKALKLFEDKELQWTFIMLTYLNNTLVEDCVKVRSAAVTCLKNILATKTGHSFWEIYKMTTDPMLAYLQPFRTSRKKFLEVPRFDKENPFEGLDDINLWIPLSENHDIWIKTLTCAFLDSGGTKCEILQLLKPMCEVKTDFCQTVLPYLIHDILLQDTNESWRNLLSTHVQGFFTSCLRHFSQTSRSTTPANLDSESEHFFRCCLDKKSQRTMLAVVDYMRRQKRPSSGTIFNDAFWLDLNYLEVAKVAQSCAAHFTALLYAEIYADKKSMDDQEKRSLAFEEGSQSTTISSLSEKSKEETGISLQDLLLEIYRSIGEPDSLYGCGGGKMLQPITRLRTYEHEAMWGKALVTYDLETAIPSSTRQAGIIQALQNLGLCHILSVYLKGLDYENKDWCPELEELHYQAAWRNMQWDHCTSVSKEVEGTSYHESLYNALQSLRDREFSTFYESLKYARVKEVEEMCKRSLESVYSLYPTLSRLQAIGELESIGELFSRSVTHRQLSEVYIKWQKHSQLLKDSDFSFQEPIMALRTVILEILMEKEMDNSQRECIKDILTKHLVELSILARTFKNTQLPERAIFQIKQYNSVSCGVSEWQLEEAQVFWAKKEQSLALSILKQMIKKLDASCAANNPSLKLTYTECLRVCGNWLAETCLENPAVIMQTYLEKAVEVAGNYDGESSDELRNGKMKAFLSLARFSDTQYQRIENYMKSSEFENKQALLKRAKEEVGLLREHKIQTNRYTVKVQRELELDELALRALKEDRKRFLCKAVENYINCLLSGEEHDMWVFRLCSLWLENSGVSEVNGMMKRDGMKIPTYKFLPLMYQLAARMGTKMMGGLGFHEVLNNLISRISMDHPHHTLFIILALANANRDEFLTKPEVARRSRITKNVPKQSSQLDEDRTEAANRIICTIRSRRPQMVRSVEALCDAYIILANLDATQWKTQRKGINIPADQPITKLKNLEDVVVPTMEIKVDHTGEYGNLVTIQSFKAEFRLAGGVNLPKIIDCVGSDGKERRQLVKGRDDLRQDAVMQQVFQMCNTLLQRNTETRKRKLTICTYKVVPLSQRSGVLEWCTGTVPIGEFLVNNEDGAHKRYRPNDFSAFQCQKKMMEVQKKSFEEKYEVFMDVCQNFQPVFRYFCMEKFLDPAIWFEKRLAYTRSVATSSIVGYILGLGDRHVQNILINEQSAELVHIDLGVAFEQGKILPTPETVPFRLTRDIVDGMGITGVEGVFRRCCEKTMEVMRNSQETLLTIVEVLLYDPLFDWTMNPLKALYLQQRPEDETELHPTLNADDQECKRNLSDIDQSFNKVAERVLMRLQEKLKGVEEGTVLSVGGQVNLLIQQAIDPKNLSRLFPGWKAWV

**Q.** What does the source list for `O=C(NC1CCCCC1)c1[nH]cnc1-c1nc2ccccc2[nH]1`?
**A.** IC50 (MDA-MB-231 [1]): 8.3 µM; IC50 (PANC-1): 19.2 µM; inhibition (MDA-MB-231 [2]): Active; Activity (MDA-MB-231 [3]): Active; Activity [4]: Active; Activity (Nibrin (Homo sapiens)): Active; Activity [5]: Active; inhibition (MDA-MB-468 [6]): Dde; Activity (MDA-MB-468 [7]): Dde; Activity (MDA-MB-468 [8]): 50%; Activity (MDA-MB-468 [9]): Dde; Activity (MDA-MB-231 [10]): Dde; Activity (MDA-MB-231 [11]): Dde
